According to patent US20220264883A1, “IMIDAZOTHIAZOLE COMPOUNDS AND METHODS FOR TREATING PLANT NEMATODE INFECTIONS” (The Governing Council of the University of Toronto, priority 2019, published 2022):

How the values were obtained:
[1] = HEK cell culture and dose-response experiments; assay type: cell-based, Human; settings: human, HEK293 cells, non-target system, CellTiter-Blue, read-out: HEK Cells LC50
Protocol: HEK293 cells were seeded into 96-well plates, at 5000 cells per well, in 100 μL total volumes of DMEM/10% FBS/1% PS media and grown overnight at 37° C. in the presence of 5% CO2. Compounds (0.5 μL volumes from appropriate source plates) were then added to cells, and growth was continued for an additional 48 hours. Following growth, 10 μL of CellTiter-Blue Viability reagent (Promega) was added to each well, and plates were incubated for an additional 4 hours at 37° C. in the presence of 5% CO2. Fluorescence measurements (560 nm excitation/590 nm emission) were then performed using a CLARIOstar Plate Reader (BMG Labtech) to quantify reagent reduction and estimate cell viability.

[2] = Saccharomyces cerevisiae (budding yeast) dose-response experiments; assay type: cell-based; settings: Saccharomyces cerevisiae, yeast strain RY0568 culture; non-target system; growth over 18 hours; read-out: S. cerevisiae LC50
Protocol: A saturated culture of the yeast strain RY0568 was diluted to an OD600 of 0.015 with fresh YPD media (see ref. 62). 100 μL of this dilute yeast suspension was added to each well of a 96-well plate. The yeast were grown for 4 hours at 30° C. with shaking at 140 rpm. Using a multichannel pipette, 1 μL of chemical solution was added to each well to achieve the desired final concentrations. The final DMSO concentration was 1% (v/v). The microwell plate was then loaded into a TECAN plate reader set at 30° C. The OD600 of each well was measured over an 18-hour period, and the plate was shaken intermittently throughout the run. The areas under the resultant growth curves were calculated using R scripts adapted from those found in the MESS package. The area under the curve at each concentration of a dose-response assay was divided by the area under the curve for the corresponding DMSO control, resulting in a “relative fitness” value for each concentration tested. Three biological replicates were performed for each dose-response experiment, and the relative fitness values were averaged across the three replicates.

[3] = Danio rerio (zebrafish) embryo dose-response experiments; assay type: in vivo; settings: AB/Tubingen, Danio rerio (zebrafish), in vivo, other: immersion in chemical-treated water; non-target system; embryos, 24 hours exposure; read-out: D. rerio LC50
Protocol: Zebrafish chemical assays were performed similarly to previously described methods^63. In brief, fish were maintained at 28.5° C. on a 14/10 hour light/dark cycle and staged according to hours post fertilization (hpf). For each biological replicate, eggs from LT fish (AB/Tubingen strain) were collected at 4 hpf. At 24 hpf, embryos were arrayed in 24 well plates, 10 per well. In 2 ml tubes, 4 μl of chemical dissolved in DMSO at the appropriate concentration was added to 800 μl of water and then vortexed for 30 s intensively. Water was removed from the embryos in the wells and 800 μl of chemical-treated water was transferred to each of the wells. The DMSO control wells contained DMSO alone. The final DMSO concentration in every well was 0.5% (v/v). […] The embryos were incubated in the chemicals for 24 hours and scored for death and toxicity at 48 hpf. Toxicity was defined as the embryos showing developmental defects such as a curved body, reduced body size, skin whiteness, and heart edema. “Relative viability” was calculated by dividing the number of viable and properly developed embryos in the treatment wells by the average number of viable and properly developed embryos across six DMSO control wells. Three biological replicates were performed for each dose-response experiment, and the relative viability values were averaged across the three replicates.

[4] = test system: C. oncophora; experiment: whole plant or invertebrate; assay type: in vivo; settings: Cooperia oncophora, 48 h; eggs of ivermectin-resistant strain, 2 days, egg hatch
Source text: Fresh cattle faeces containing eggs of an ivermectin-resistant strain of C. oncophora were kindly supplied by Dr. Doug Colwell and Dawn Gray (Lethbridge Research Station, Agriculture and Agri-Food Canada). Established methods were used to carry out the experimental cattle infections^60, and these methods were approved by the Lethbridge AAFC Animal Care committee and conducted under animal use license ACC1407. Cattle faeces containing C. oncophora eggs were stored anaerobically at room temperature for a maximum of 6 days before use. Eggs were isolated from faeces using a standard saturated salt flotation method^61 immediately before the egg hatch assay. 80 μl of distilled and deionized water was added to each well of a 96-well culture plate, and then 1 μl of chemical at the appropriate concentration in DMSO was added to each well using a multichannel pipette. Approximately 50 eggs were added per well in 20 μl of water for a final volume of 100 μl in each well, the final DMSO concentration was 1% (v/v). The eggs were incubated in the chemicals for 2 days at room temperature, after which hatching was stopped by the addition of 1 μl iodine tincture to each well. […] “Relative viability” values were calculated by dividing the fraction of eggs that hatched at each concentration by the fraction of eggs that hatched in the corresponding DMSO control wells. Two biological replicates were performed for each dose-response experiment, and the relative viability values were averaged across the biological replicates. The average hatch rate for the DMSO control wells was greater than 93% for both biological replicates. LC50 values were calculated in the same manner as for the C. elegans dose-response assays

[5] = test system: M. chitwoodi; experiment: Root-knot nematode M. chitwoodi mobility (Table 3); assay type: in vivo, Meloidogyne chitwoodi; settings: 45 μM, 2 days of chronic exposure
Protocol: M. incognita (Kofoid & White) Chitwood Race 1 (originally isolated in Maryland) was used for all experiments, and was maintained on pepper (Capsicum annuum L.) cv. PA-136 in a greenhouse as previously described^64. Infective J2 juveniles were collected as described in ref.65. The microwell dose-response experiments were carried out similarly to previously described protocols^64, 66. In brief, 100 J2s, in 10 μL of deionized water, were added to the wells of 96-well polystyrene plates, after which 190 μL of deionized water containing dissolved chemical, or DMSO alone, was added to each well. The chemicals were tested at 45 μM, and the final concentration of DMSO in each well was 0.5% (v/v). The wells were covered with a plastic adhesive strip, and the lids of the plates were sealed with parafilm. The plates were incubated at 25° C. The mobile fraction of worms was quantified by counting the number of mobile and immobile worms after 2 days of incubation, and then dividing the number of mobile worms by the total number of worms in the well. Three technical replicates were performed for each treatment, and an average value for the mobile fraction of worms was calculated across the three replicates. The percent effectiveness at inhibiting nematode movement was calculated by dividing the average value for the chemical treatment by the average value for the DMSO control, then subtracting this value from 1, and then multiplying by 100.
M. chitwoodi race 1 (the strain commonly found in the pacific northwest of the United States) was used for all experiments, and was maintained on tomato plants (Solanum lycopersicum ‘Rutgers’) as previously described^73. The M. chitwoodi in vitro assays were performed identically to the M. incognita in vitro assays (see above).
The ability of exemplary compounds of the application to kill C. elegans at 100 μM (except for compound If which was tested at 50 μM) and to affect the mobility of M. chitwoodi at 45 μM was tested as described above for M. incognita infective juveniles. Percent mobility was measured after 2 days of chronic exposure to test compounds (Table 3).

Row | SMILES | CC50 at 48 h [1] | CC50 at 18 h [2] | LC50 at 24 h [3] | LC50 [4] | RKN mobility [5]
1 | Clc1ccc(-c2cn3ccsc3n2)cc1 [Ia] | > 100 µM | > 100 µM | > 100 µM | 3.7 µM | 0%
2 | Fc1ccc(-c2cn3ccsc3n2)cc1 [Ib] | > 100 µM | > 100 µM | > 100 µM | 5.4 µM | 43.2%
3 | Cc1csc2nc(-c3ccccc3)cn12 [Compound Ie] | > 100 µM | > 100 µM | > 100 µM | 0.9 µM | 50.8%
